The text below walks through data of patent US20040142864A1, “Crystal structure of PIM-1 kinase” (Plexxikon, Inc., priority 2002, published 2004).

The term IC50 denotes the concentration that gives 50% inhibition. Read a low IC50 as greater potency.

This assay concerns the target PIM-1 (Homo sapiens, UniProt P11309). Put plainly: PY20 AlphaScreen kit kinase inhibition assay. (Bead proximity is the source of the signal in Alpha formats.)

Sequence of PIM-1 (P11309 whole entry): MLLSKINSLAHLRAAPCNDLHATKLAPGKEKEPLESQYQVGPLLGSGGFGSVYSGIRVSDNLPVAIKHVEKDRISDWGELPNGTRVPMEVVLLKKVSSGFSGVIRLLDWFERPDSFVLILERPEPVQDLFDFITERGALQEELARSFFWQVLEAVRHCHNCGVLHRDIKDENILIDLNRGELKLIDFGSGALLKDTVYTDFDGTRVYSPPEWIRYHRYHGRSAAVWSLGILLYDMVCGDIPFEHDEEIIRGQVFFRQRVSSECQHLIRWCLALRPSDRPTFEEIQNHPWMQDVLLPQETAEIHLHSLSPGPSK

Compound `CSc1cccc(Nc2ncc3cc(-c4c(Cl)cccc4Cl)c(=O)n(C)c3n2)c1` came in with an IC50 of 10 nM.
